Measurements as given in patent US20150152064A1, “METHODS AND COMPOSITIONS OF TREATING A FLAVIVIRIDAE FAMILY VIRAL INFECTION” (The Board of Trustees of the Leland Stanford Junior …, priority 2007, published 2015).

Test: in vitro
Type: cell-based
Conditions: human, huh-7.5 cells
Procedure: Luciferase assays are performed at about 48 hr to about 72 hr or 96 hr.
After a 5-30 min recovery at about 25° C., pulsed cells are diluted into 2-25 ml of prewarmed growth medium. […] Untreated cells are used as a negative control for water soluble compounds. […] Medium is changed daily.
Following about 48, about 72, or about 96 hrs of treatment, cells are incubated for 1-5 hrs at about 37° C. in the presence of 1-20% Alamar Blue reagent (TREK Diagnostic Systems).

SMILES: Cc1ccc(Cn2ncc3ccccc32)cc1 [Compound 185]
- viability at 5 µM: ≥ 90%
- viability at 10 µM: ≥ 90%
